Experimental data taken from paper PMC5116089, “Sulfheme formation during homocysteine S-oxygenation by catalase in cancers and neurodegenerative diseases” (Nature Communications, 2016).

Target: T1, Bovine liver catalase (Bos taurus, UniProt P00432)
T1 construct: Bovine liver catalase was also purchased from Sigma-Aldrich; purchased Sigma-Aldrich; host or cells: bovine liver
T1 sequence (P00432 2-527 limits assumed): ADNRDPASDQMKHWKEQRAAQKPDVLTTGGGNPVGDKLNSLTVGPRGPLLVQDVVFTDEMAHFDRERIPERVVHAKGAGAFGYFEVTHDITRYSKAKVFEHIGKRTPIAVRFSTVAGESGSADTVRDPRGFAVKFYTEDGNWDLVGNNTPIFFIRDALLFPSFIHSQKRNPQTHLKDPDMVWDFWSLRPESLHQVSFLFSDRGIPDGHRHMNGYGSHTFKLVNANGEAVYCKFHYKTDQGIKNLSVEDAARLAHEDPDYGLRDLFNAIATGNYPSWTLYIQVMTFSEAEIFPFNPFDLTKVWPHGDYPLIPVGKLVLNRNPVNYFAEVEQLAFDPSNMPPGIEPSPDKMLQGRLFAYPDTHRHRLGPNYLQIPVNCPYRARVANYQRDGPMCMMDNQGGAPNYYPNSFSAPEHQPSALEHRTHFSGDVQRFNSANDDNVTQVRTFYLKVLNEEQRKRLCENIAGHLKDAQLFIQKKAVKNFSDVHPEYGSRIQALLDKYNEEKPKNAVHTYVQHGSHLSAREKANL
Assay: Time course of catalase inactivation by HCys (activity test)
Assay type: biochemical
Conditions: CAT + 2 mM HCys, 1 mM DTPA, pH 7.4, with the additive named (DMPO 100 mM, dimedone 4 mM, SOD 40 U); n=2±s.d.
Method: CAT activity was measured on an Uvikon 941 spectrophotometer equipped with a temperature controlled water bath (±1 °C) by following the disappearance of H2O2 at 240 nm over 30–120 s at 25 °C. Catalase activity was calculated based on the rate of decomposition of hydrogen peroxide, which is proportional to the reduction of the absorbance at 240 nm. Experiments were carried out in a 3 ml quartz cuvette containing 11.7 mM H2O2 in 50 mM KPi, pH 7.4±1 mM DTPA and the reaction was initiated by adding 0.3–0.6 pmoles of CAT. The effect of biological thiols on the activity of CAT under physiological conditions was determined from a solution of CAT (30–60 nM) preincubated at 25 °C for at least 120 min as a function thiol concentration (0–40 mM for HCys and Cys, 0–100 mM for GSH) in 50 mM KPi, pH 7.4, 1 mM DTPA. Control experiments (biological thiols alone) were also performed in parallel. In each case, 10 μl of the reaction mixture (biological thiols±CAT) was added to the cuvette containing the H2O2 solution to initiate the reaction. Similarly, the effect of biological thiols on the activity of CAT under pathological conditions was determined from a solution of CAT (30–60 nM) containing a 2.124±0.386 molar excess of iron that was preincubated with various concentrations of thiols (0–1 mM) for at least 120 min at 25 °C in 50 mM KP at pH 7.4. The relative half inhibitory concentration (IC50) values were obtained by plotting the relative activity of CAT (A, in per cent) as a function of the concentration of thiol-compounds (RSH) and by fitting the data with the following four parameter logistic equation: A=Amin+(Amax−Amin)/(1+([RSH]/IC50)^n), where Amax is the maximal activity of CAT (constrained at 100%), Amin is the minimum activity achieved at saturating concentration of RSH and n is the Hillslope that characterizes the slope of the curve at its midpoint. The inactivation rate (kinact, min^−1) was extracted from the time course of the inactivation of CAT bioactivity using a fixed concentration of HCys. Accordingly, a solution of CAT (3.5–5 μM) was incubated with 2 mM L-HCys in 50 mM KPi, pH 7.4, 1 mM DTPA. Aliquots (10 μl) were taken at intervals (0–480 min), diluted 1:50 in 50 mM KPi, pH 7.4, 1 mM DTPA and assayed for CAT activity as described above. […] The effect of NaSH on the consumption of H2O2 in cell lysates was determined from a solution of cell lysates (0.5–3 mg ml^−1) incubated on ice with various concentrations of NaSH (0–200 μM). […]

kinact: 0.000483 s⁻¹
SMILES: NC(CCS)C(=O)O (stereo not shown) [HCys, homocysteine]
